From patent US9951056B2, “Substituted nicotinamide inhibitors of BTK and their preparation and use in the treatment of cancer, inflammation and autoimmune disease” (BEIJING INNOCARE PHARMA TECH CO., LTD., priority 2013, dated 2018) come the findings set out here.

One may read the IC50 as the midpoint of a concentration-inhibition curve. Higher therefore signals weaker potency.

Some results are limits rather than exact numbers.

Sequence of BTK (Q06187 whole entry): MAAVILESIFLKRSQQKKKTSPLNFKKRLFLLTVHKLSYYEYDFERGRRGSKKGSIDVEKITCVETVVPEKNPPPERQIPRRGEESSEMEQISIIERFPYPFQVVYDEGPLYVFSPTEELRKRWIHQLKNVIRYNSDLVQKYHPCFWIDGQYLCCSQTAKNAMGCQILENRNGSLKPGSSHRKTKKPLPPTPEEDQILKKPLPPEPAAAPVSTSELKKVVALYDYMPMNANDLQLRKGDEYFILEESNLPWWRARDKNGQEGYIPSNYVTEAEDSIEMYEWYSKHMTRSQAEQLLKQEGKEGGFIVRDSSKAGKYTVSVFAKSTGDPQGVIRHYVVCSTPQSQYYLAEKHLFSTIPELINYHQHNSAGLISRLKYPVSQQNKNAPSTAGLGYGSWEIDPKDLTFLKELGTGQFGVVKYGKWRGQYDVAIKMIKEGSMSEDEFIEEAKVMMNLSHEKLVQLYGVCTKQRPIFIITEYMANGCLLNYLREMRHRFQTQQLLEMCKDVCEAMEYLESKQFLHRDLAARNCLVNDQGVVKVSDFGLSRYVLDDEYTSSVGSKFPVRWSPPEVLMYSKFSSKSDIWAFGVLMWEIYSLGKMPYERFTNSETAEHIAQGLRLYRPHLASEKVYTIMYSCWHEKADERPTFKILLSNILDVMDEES

The target of the experiment is BTK (Homo sapiens (Human), UniProt Q06187). Description: ADP-Glo kinase biochemical assay, IC50 determination of BTK inhibitors. Conditions: ADP-Glo, ATP 50 uM; values given as bins. As to the method:
Biological Properties: IC50 Determination of BTK Inhibitors in ADP-Glo Kinase Biochemical Assay
Those skilled in the art will appreciate that a variety of assay formats may be used to determine the activity of the compounds described herein.
ADP-Glo™ Kinase Assay (Cat. V9102, 10000 Tests), Components: • 1×50 ml ADP-Glo™ Reagent, • 1×100 ml Kinase Detection Buffer, • 1× Kinase Detection Substrate (Lyophilized), • 1×5 ml Ultra Pure ATP, 10 mM • 1×5 ml ADP, 10 mM
• Enzyme concentration: 8 ng/5 ul. • ATP concentration: 50 uM • Substrate (peptide) concentration: 0.2 mg/ml. • Reaction buffer composition: 40 mM Tris-HCl pH7.5, 10 mM MgCl2, 2 mM MnCl2, 0.1 mg/mL BSA, 0.05 mM DTT. • Test compound concentration: DMSO≤0.5%. Methods: Compound Dosage Gradient Solution Preparation: […]
1× and 2× assay buffer were made at first. BTK kinase was diluted with 1× assay buffer but substrate was diluted with 2× assay buffer. 1 ul of diluted compound was transferred into 384-well assay plate, and then 2.0 ul of enzyme solution was added, and spun at 2000 rpm for 1 min. This mixture was incubated at 24° C. for 30 mins. 2 ul of peptide substrate/ATP mixture was added into the assay plate to start the reaction. The mixture was mixed thoroughly and then the 384-well plate was spun and incubated at 24° C. for 60 mins. 5.0 ul of ADP-Glo Reagent was added to stop the kinase activity and deplete the ATP unconsumed, and the plate was mixed thoroughly and incubated at 24° C. for 40 min. Then, 10.0 ul of Kinase Detection reagent was added, and the plate was centrifuged and then kept at 24° C. for 30 min. The luminescence signal was read on Envision.
IC50 values of compounds were calculated from a 4-parameter fit using Equation (2): Y=Bottom+(TOP-Bottom)/(1+((C/X)^hillslope)) Equation (2)
In Equation 2, Y represents % inhibition, X is the log value of the test compound concentration. IC50 was the concentration of compound where half of maximal inhibition was achieved.
All data was analyzed with IDBS XLfit5 software (ID Business Solutions Ltd., UK).
(In general: ADP-Glo first removes unused ATP, then detects ADP through luciferase.)
Regarding `C=CC(=O)N1CCN(c2ccc(C(N)=O)c(-c3ccc(F)c(OC)c3)n2)CC1` [Example 30, 6-(4-acryloylpiperazin-1-yl)-2-(4-fluoro-3-methoxyphenyl)nicotinamide], the concentration for half-maximal inhibition (IC50) was at least 1000 nM.
With `C=CC(=O)N1CCC(n2cc(C(N)=O)c(-c3ccc(Oc4ccccc4)cc3)n2)CC1` [Example 12, 1-(1-acryloylpiperidin-4-yl)-3-(4-phenoxyphenyl)-1H-pyrazole-4-carboxamide] the figure was below 500 nM; with `C=CC(=O)N1CCC(c2nc(-c3ccc(Oc4ccccc4)cc3)c(C(N)=O)s2)C1` (centres unmarked) [Example 41, 2-(1-acryloylpyrrolidin-3-yl)-4-(4-phenoxyphenyl)thiazole-5-carboxamide], below 500 nM; with `C=CC(=O)N1CCN(c2ccc(C(N)=O)c(-c3ccc(Oc4ccccc4F)cc3)n2)CC1` [Example 38, 6-(4-acryloylpiperazin-1-yl)-2-(4-(2-fluorophenoxy)phenyl)nicotinamide], below 500 nM.
Next, `C=CC(=O)N1CCC(c2ccc(C(N)=O)c(-c3ccc(C(O)c4ccccc4)cc3)n2)CC1` (centres unmarked) [Example 58, 6-(1-acryloylpiperidin-4-yl)-2-(4-(hydroxy(phenyl)methyl)phenyl)nicotinamide]: below 500 nM; `C=CC(=O)N1CCC(c2nc(C(N)=O)c(-c3ccc(Oc4ccccc4)cc3)s2)C1` (centres unmarked) [Example 44, 2-(1-acryloylpyrrolidin-3-yl)-5-(4-phenoxyphenyl)thiazole-4-carboxamide]: below 500 nM; `C=CC(=O)N1CCN(c2ccc(C(N)=O)c(-c3ccc(Cl)cc3)n2)CC1` [Example 33, 6-(4-acryloylpiperazin-1-yl)-2-(4-chlorophenyl)nicotinamide]: at least 1000 nM.
With `C=CC(=O)N1CCC(c2ccc(C(N)=O)c(-c3ccc(Oc4ccccc4)cc3)c2)CC1` [Example 55, 5-(1-acryloylpiperidin-4-yl)-4′-phenoxybiphenyl-2-carboxamide] the figure was below 500 nM; with `C=CC(=O)N1CC(n2cc(C(N)=O)c(-c3ccc(Oc4ccccc4)cc3)n2)C1` [Example 15, 1-(1-acryloylazetidin-3-yl)-3-(4-phenoxyphenyl)-1H-pyrazole-4-carboxamide], below 500 nM; with `C=CC(=O)N1CCC(c2ncc(C(N)=O)c(-c3ccc(Oc4ccccc4)cc3)n2)CC1` [Example 21, 2-(1-acryloylpiperidin-4-yl)-4-(4-phenoxyphenyl)pyrimidine-5-carboxamide], below 500 nM.
Take `CN(C)C/C=C/C(=O)N1CCN(c2ccc(C(N)=O)c(-c3ccc(Oc4ccccc4)cc3)n2)CC1` [Example 25, (E)-6-(4-(4-(dimethylamino)but-2-enoyl)piperazin-1-yl)-2-(4-phenoxyphenyl)nicotinamide]: the half-maximal inhibitory concentration (IC50) is below 500 nM.
Next, `C=CC(=O)Nc1cccc(-c2ccc(C(N)=O)c(-c3ccc(Oc4ccccc4)cc3)n2)c1` [Example 1, 6-(3-acrylamidophenyl)-2-(4-phenoxyphenyl)nicotinamide]: below 500 nM.
Next, `C=CC(=O)NC1CCN(c2ccc(C(N)=O)c(-c3ccc(Oc4ccccc4)cc3)n2)C1` (centres unmarked) [Example 10, 6-(3-acrylamidopyrrolidin-1-yl)-2-(4-phenoxyphenyl)nicotinamide]: below 500 nM; `C=CC(=O)N1CCC(c2nc(C(N)=O)c(-c3ccc(Oc4ccccc4)cc3)s2)CC1` [Example 49, 2-(1-acryloylpiperidin-4-yl)-5-(4-phenoxyphenyl)thiazole-4-carboxamide]: below 500 nM.
`C=CC(=O)Nc1ccc(-n2cc(C(N)=O)c(-c3ccc(Oc4ccccc4)cc3)n2)cc1` [Example 16, 1-(4-acrylamidophenyl)-3-(4-phenoxyphenyl)-1H-pyrazole-4-carboxamide]: the IC50 is below 500 nM.
Next, `C=CC(=O)N1CCC(n2cc(C(N)=O)c(-c3ccc(Oc4ccccc4)cc3)n2)C1` (centres unmarked) [Example 13, 1-(1-acryloylpyrrolidin-3-yl)-3-(4-phenoxyphenyl)-1H-pyrazole-4-carboxamide]: below 500 nM.
Next, `C=CC(=O)N1CCN(c2nc(-c3ccc(Oc4ccccc4)cc3)c(C(N)=O)s2)CC1` [Example 51, 2-(4-acryloylpiperazin-1-yl)-4-(4-phenoxyphenyl)thiazole-5-carboxamide]: below 500 nM.
Next, `N#CCC(=O)N1CC(n2cc(C(N)=O)c(-c3ccc(Oc4ccccc4)cc3)n2)C1` [Example 50, 1-(1-(2-cyanoacetyl)azetidin-3-yl)-3-(4-phenoxyphenyl)-1H-pyrazole-4-carboxamide]: at least 1000 nM; `N#C/C(=C\C1CC1)C(=O)N1CC(n2cc(C(N)=O)c(-c3ccc(Oc4ccccc4)cc3)n2)C1` [Example 53, (E)-1-(1-(2-cyano-3-cyclopropylacryloyl)azetidin-3-yl)-3-(4-phenoxyphenyl)-1H-pyrazole-4-carboxamide]: at least 1000 nM; `C=CC(=O)N1CCCC(c2nc(C(N)=O)c(-c3ccc(Oc4ccccc4)cc3)s2)C1` (centres unmarked) [Example 45, 2-(1-acryloylpiperidin-3-yl)-5-(4-phenoxyphenyl)thiazole-4-carboxamide]: below 500 nM.
The compound `C=CC(=O)N1CCN(c2ccc(C(N)=O)c(-c3ccc(Oc4ccccc4)nc3)n2)CC1` [Example 31, 6-(4-acryloylpiperazin-1-yl)-6′-phenoxy-2,3′-bipyridine-3-carboxamide] registered an IC50 of 500 to 1000 nM.
Next, `C=CC(=O)N1CCN(c2ccc(C(N)=O)c(-c3ccc(Oc4ccccc4)cc3)c2)CC1` [Example 57, 5-(4-acryloylpiperazin-1-yl)-4′-phenoxybiphenyl-2-carboxamide]: below 500 nM; `C=CC(=O)N1CCC(c2ncc(C(N)=O)c(-c3ccc(Oc4ccccc4)cc3)n2)C1` (centres unmarked) [Example 22, 2-(1-acryloylpyrrolidin-3-yl)-4-(4-phenoxyphenyl)pyrimidine-5-carboxamide]: below 500 nM; `C=CC(=O)N1CCC(c2nc(-c3ccc(Oc4ccccc4)cc3)c(C(N)=O)o2)C1` (centres unmarked) [Example 43, 2-(1-acryloylpyrrolidin-3-yl)-4-(4-phenoxyphenyl)oxazole-5-carboxamide]: below 500 nM.
Next, `C=CC(=O)N1CCN(c2ccc(C(N)=O)c(-c3ccc(C)c(OC)c3)n2)CC1` [Example 29, 6-(4-acryloylpiperazin-1-yl)-2-(3-methoxy-4-methylphenyl)nicotinamide]: below 500 nM; `NC(=O)c1cn(-c2cccc(N)c2)nc1-c1ccc(Oc2ccccc2)cc1` [Example 17, 1-(3-aminophenyl)-3-(4-phenoxyphenyl)-1H-pyrazole-4-carboxamide]: below 500 nM; `C=CC(=O)Nc1ccc(-c2ccc(C(N)=O)c(-c3ccc(Oc4ccccc4)cc3)n2)cc1` [Example 7, 6-(4-acrylamidophenyl)-2-(4-phenoxyphenyl)nicotinamide]: below 500 nM.
Next, `C=CC(=O)N1CCN(c2nc(-c3ccc(Oc4ccccc4)cc3)c(C(=O)NC)s2)CC1` [Example 47, 2-(4-acryloylpiperazin-1-yl)-N-methyl-4-(4-phenoxyphenyl)thiazole-5-carboxamide]: below 500 nM; `C=CC(=O)N1CC[C@@H](n2cc(C(N)=O)c(-c3ccc(Oc4ccccc4)cc3)n2)C1` [Example 20, (R)-1-(1-acryloylpyrrolidin-3-yl)-3-(4-phenoxyphenyl)-1H-pyrazole-4-carboxamide]: below 500 nM.
Compound `C=CC(=O)Nc1cccc(-n2cc(C(N)=O)c(-c3ccc(Oc4ccccc4)cc3)n2)c1` [Example 18, 1-(3-acrylamidophenyl)-3-(4-phenoxyphenyl)-1H-pyrazole-4-carboxamide] gave an IC50 below 500 nM.
With `C=CC(=O)N1CCN(c2ccc(C(N)=O)c(-c3ccc(Oc4ccc(C#N)cc4)cc3)n2)CC1` [Example 27, 6-(4-acryloylpiperazin-1-yl)-2-(4-(4-cyanophenoxy)phenyl)nicotinamide] the figure was at least 1000 nM.
With `C=CC(=O)N1CCN(c2ccc(C(N)=O)c(-c3ccc(OC4CCC(F)(F)CC4)cc3)n2)CC1` [Example 60, 6-(4-acryloylpiperazin-1-yl)-2-(4-((4,4-difluorocyclohexyl)oxy)phenyl)nicotinamide] the figure was below 500 nM; with `NC(=O)c1ccc(N2CCNCC2)nc1-c1ccc(Oc2ccccc2)cc1` [Example 4, 2-(4-phenoxyphenyl)-6-(piperazin-1-yl)nicotinamide], at least 1000 nM; with `C=CC(=O)N1CCN(c2ccc(C(N)=O)c(-c3ccc(Oc4ccccc4)c(F)c3)n2)CC1` [Example 36, 6-(4-acryloylpiperazin-1-yl)-2-(3-fluoro-4-phenoxyphenyl)nicotinamide], below 500 nM.
Next, `C=CS(=O)(=O)N1CCN(c2ccc(C(N)=O)c(-c3ccc(Oc4ccccc4)cc3)n2)CC1` [Example 62, 2-(4-phenoxyphenyl)-6-(4-(vinylsulfonyl)piperazin-1-yl)nicotinamide]: below 500 nM.
